Measured values reported in patent publication US20100256217A1, “ANTIVIRAL INHIBITION OF CASEIN KINASE II” (The Trustees of the University of Pennsylvania, priority 2006, published 2010).
“Also recorded” adds a separate entry of the source.

Legend:
recombinant CK2 = biological target: T1, recombinant CK2 (Homo sapiens, UniProt P68400); test: In vitro CK2 kinase assay with recombinant WNV C as substrate; assay type: biochemical; settings: 32P-ATP or 32P-GTP as donor; autoradiography
T1 construct: purchased Biomol Research Laboratories (Plymouth Meeting, Pa.)
T1 sequence (P68400 whole entry): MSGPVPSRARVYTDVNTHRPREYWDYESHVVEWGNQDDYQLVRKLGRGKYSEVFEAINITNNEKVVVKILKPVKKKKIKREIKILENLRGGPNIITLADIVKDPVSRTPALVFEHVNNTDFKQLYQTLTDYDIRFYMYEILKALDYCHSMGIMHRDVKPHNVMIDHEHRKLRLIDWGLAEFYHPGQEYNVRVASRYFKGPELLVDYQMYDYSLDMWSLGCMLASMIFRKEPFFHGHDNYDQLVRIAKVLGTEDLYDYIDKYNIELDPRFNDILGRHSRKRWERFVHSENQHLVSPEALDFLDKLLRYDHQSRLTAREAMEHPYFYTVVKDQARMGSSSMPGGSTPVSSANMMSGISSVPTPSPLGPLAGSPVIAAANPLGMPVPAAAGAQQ
T1 sequence (P67870 whole entry partner): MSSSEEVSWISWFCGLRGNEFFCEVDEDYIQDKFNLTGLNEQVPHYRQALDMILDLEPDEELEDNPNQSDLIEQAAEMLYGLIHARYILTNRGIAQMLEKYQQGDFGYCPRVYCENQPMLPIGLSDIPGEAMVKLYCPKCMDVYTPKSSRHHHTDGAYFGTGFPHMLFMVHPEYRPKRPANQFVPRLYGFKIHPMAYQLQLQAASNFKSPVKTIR
Experimental: In vitro protein kinase assays. In vitro phosphorylation assays were routinely done with the recombinant Cp proteins with the recombinant CK2 (Biomol, Pa.) in a 20 μl-reaction volume. Reaction mixtures (20 μL) contained 25 mM Hepes, pH 7.4, 2 mM MnCl2 or 5 mM MgCl2, 1.6 μCi of -^32P-GTP or […] (Amersham Pharmacia Biotech), and 0.5 to 1 μg of purified His-tagged WNV Cp as a substrate. Histone 1B (Calbiochem) protein was used as positive control. The phosphorylation reaction was started by the addition of ^32P-ATP or ^32P-GTP and the reaction was carried out for 30 min at 30 C. The kinase assays were arrested by the addition of 20 μl of SDS-sample buffer and the reaction mixtures were boiled for five minutes. Phosphorylated proteins were separated in SDS PAGE and proteins ere visualized by autoradiography.
Purified rC fractions from E. coli cells (M15[pREP4+pQE-WNV C]) were subjected to subsequent kinase assays. Using purified CK2 enzyme, in vitro assay was performed with ^32P-ATP as a phosphate donor to examine possible role of CK2 in the phosphorylation of WNV C. […] CK2 is unique among protein kinases in its ability to use both ATP and GTP as phosphoryl group donors. Another biochemical property of CK2 that makes it different from other kinases is its high sensitivity to inhibition by heparin.

WNV [1] = test: WNV titers by plaque assay on Vero cells; assay type: cell-based, West Nile virus; settings: DRB at different doses (FIG. 7B)
Experimental: The inhibited level of viral release indicates the siRNA-CK2 mediated effects are statistically significant.
Virus titration by plaque assay. Virus production was titered by plaque assays using Vero cells. For routine analysis, cells were seeded in 6-well (6×10^5 cells/well) or 12-well (3×10^5 cells/well) plates in -MEM with 10% FBS for 3 h at 37° C. Medium was removed, serial dilutions of virus supernatants in -MEM with 2% FBS were added (0.30 ml/well for 6-well plates and 0.15 ml/well for 12-well plates), and the cells were incubated for 2 h at 37° C. […] Virus concentrations are determined as PFU per milliliter.
In the context of whole virus, we examined whether inhibition of cellular CK2 affects WN viral release. […] We harvested culture fluid at regular intervals, determined viral titre by routine Plaque assays and used them for infection assays. […] Forty-eight hours post infection, viral release was monitored by both plaque assays as well as ELISAs measuring the presence of […] using monoclonal anti E antibody. FIG. 6B depicts the release of viral molecules from WNV-infected cells as measured by ELISA using anti-E antibody. […] In order to test this, in the second approach, WNV release was evaluated under the conditions where expression of CK2 subunits was knocked out. […] Release of WNV was monitored from these plates. […]

[2] = test system: CK2-mediated phosphorylation of WNV C in Vero cells; test: In vivo 32P labeling and immunoprecipitation of WNV C from transfected cells under DRB; assay type: cell-based, African green monkey; settings: cells transfected with pcWNV C-His; DRB 100, 500 and 1000 μM; anti-His immunoprecipitation
Experimental: In vivo ^32P-Orthophosphate labeling and WNV C immunoprecipitation. In order to check whether Cp is phosphorylated in vivo also, Capsid-transfected cells were pulse-chased with […] and their lysates were analyzed for the detection of phosphorylated capsid proteins by Immunoprecipitation. HeLa cells were grown in DMEM medium supplemented with 10% FBS until they were subconfluent. The cells were transfected with WNV Cp constructs and DOTAP/DNA containing media were replaced after about 6-hours with media with/without […]. DBS was added to a final concentration of 0.1, 0.5 and 1.0 mM. The Control cells were treated with DMSO alone. Phospholabeling and immunoprecipitation of WNV CP were performed as described previously. […] WNV CP was precipitated with anti-His monoclonal antibody (Scil Diagnostics, Martinsried, Germany). […] The immunoprecipitated capsid proteins were eluted from the protein G-agarose by boiling them for 5 min and analyzed by SDS-PAGE, followed by autoradiography.
Subsequent to the identification and characterization of CK2-mediated phosphorylation of the rC in vitro, we wanted to study this phenomenon in vivo. […] The lysates from the matching controls that were not exposed to radioactivity, were analyzed separately for capsid expression. […]

capsid-containing VLPs = test: ELISA of capsid from culture fluid (secretion of capsid-containing VLPs); assay type: cell-based; settings: DRB added to culture medium; anti-C ELISA
Description: Quantification of the protein C in ELISA from the supernatants of transfected cells. The ability of unprocessed and truncated capsid proteins to participate in the budding was assed by ELISA from culture fluid of transfected cells. In 6 cm plates, the cells were transfected with full-length capsid (123 aa) or truncated capsid (105 aa) or C(S36A) plasmids or in combination with WNV M and E-expressing constructs. Forty eight hours post-transfection, the supernatants were collected and analyzed for viral budding. One hundred microliters of supernatants were plated in triplicate, in a serial dilution series (dilutions in carbonate bicarbonate buffer) on a high protein binding EIA/RIA 96 well plate (Costar) and incubated at 4° C. overnight. In addition to the supernatants from experimental samples, a mock-transfected and untransfected media control is also added to the assay samples. Moreover, a series of wells are used as negative controls for the assay in that no supernatant is added to these wells only carbonate bicarbonate buffer. After 3 washes with PBS, nonspecific binding sites are blocked with 3% BSA in PBS solution, for 2 hours at room temperature. […] The reaction is terminated by adding 4N H2SO4 and protein levels are measured using an ELISA reader (Molecular Diagnostics) at 450 nm. […]

WNV [3] = test: WNV release from infected 293 cells, ELISA with anti-E antibody; assay type: cell-based, West Nile virus; settings: 4 MOI, 48 h post infection
Description: FIG. 6 includes panels A and B. Both reduced CK2 activity and depletion of CK2 transcripts affects viral release. FIG. 6 panel A: Depletion of CK2 transcripts reduced viral replication. As described earlier, the cells were transfected with full-length infectious clone along with siRNA-CK2α and siRNA-CK2β molecules. Lane 1 depicts the amount of viral release from the plates that were not treated with any of siRNA molecules. […] FIG. 6 panel B: Effect of cell-permeable CK2-inhibitor on viral release. 293 cells were infected with infectious WNV samples, propagated from an infectious clone of WNV.
In the context of whole virus, we examined whether inhibition of cellular CK2 affects WN viral release. We generated high titer of viral sample from Vero cells transfected with full length infectious clone (Pierson et al 2005). We harvested culture fluid at regular intervals, determined viral titre by routine Plaque assays and used them for infection assays. […] Forty-eight hours post infection, viral release was monitored by both plaque assays as well as ELISAs measuring the presence of […] using monoclonal anti E antibody. FIG. 6B depicts the release of viral molecules from WNV-infected cells as measured by ELISA using anti-E antibody. […] While the inhibition of cellular CK2 activity results in the reduced viral load, it is presumable that depletion of CK2 transcripts also could cause similar effect. In order to test this, in the second approach, WNV release was evaluated under the conditions where expression of CK2 subunits was knocked out. Cellular CK2 was knocked out by using siRNA molecules that specifically target CK2α and CK2β transcripts. siRNA-CK2α and siRNA-CK2β molecules were used to deplete cellular transcripts of CK2. 293 cells were infected with infectious WNV followed by the treatment with either siRNA control molecules or siRNA-CK2α or siRNA-CK2β molecules. Release of WNV was monitored from these plates. […] We also observed severe impairment of capsid phosphorylation in the pulse-chase studies under the influence of siRNA molecules.

Molecule	heparin concentration at which the ability of CK2 to phosphorylate C was adversely affected (recombinant CK2)	phosphorylation of C by CK2 in vitro (recombinant CK2)	WNV replication and release into culture medium by plaque assay (WNV [1])	in vivo phosphorylation of WNV C [2]	level of capsid in the culture fluid (capsid-containing VLPs)	viral release (WNV [3]; DRB 5 uM)	viral release (WNV [3]; DRB 10 uM)	viral release (WNV [3]; DRB 50 uM)
heparin	above 10 uM	severely inhibited; also recorded: severely impaired in a dose dependent manner						
OC[C@H]1O[C@@H](n2cnc3cc(Cl)c(Cl)cc32)[C@H](O)[C@@H]1O [DRB, 5,6-Dichloro-1-b-D-ribofuranosylbenzimidazole]			dose dependent	severely inhibited; also recorded: specifically blocks the phosphorylation of capsid; also recorded: adversely inhibited	significantly reduced the level of capsid from the culture fluid	significantly reduces viral release	reduced by almost one fold	completely effective at blocking viral release
